Where “and” joins values, the source holds several entries; their conditions need not be identical. Equal values may be shown once. Toxic doses and inconclusive results are not listed.

Data on 14 compounds can be found in PubChem BioAssay AID328 (DTP/NCI, 2004).

The test has as its system BDF1 mice, P388 leukemia ip, median survival T/C. In words: NCI In Vivo Anticancer Drug Screen. Data for tumor model P388 Leukemia (intraperitoneal) in B6D2F1 (BDF1) mice. To be noted: endpoint: median survival time, higher = longer survival. In a few lines:
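Compound-treated tumour-bearing mice were compared with vehicle-treated controls. Survival was recorded, and the value is the treated-group measurement divided by the control-group measurement (T/C).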

Setting [1] is: dose: 1.56 mg/kg/injection, schedule: Q01DX009 (ip), vehicle: saline with Tween-80.
The mark [2] stands for this setting: dose: 6.25 mg/kg/injection, schedule: Q01DX009 (ip), vehicle: saline with Tween-80.
Setting [3] is: dose: 100.0 mg/kg/injection, schedule: Q04DX003 (ip), vehicle: Klucel (hydroxypropylcellulose) (HPC).
Where [4] appears, read: dose: 200.0 mg/kg/injection, schedule: Q04DX003 (ip), vehicle: Klucel (hydroxypropylcellulose) (HPC).
[5] abbreviates: dose: 400.0 mg/kg/injection, schedule: Q04DX003 (ip), vehicle: Klucel (hydroxypropylcellulose) (HPC).
Where [6] appears, read: dose: 50.0 mg/kg/injection, schedule: Q01DX009 (ip), vehicle: saline.

Take `Cc1ncc(CO)c(/C=N/OCc2ccc(OCc3ccccc3)cc2)c1O`: the T/C (dose: 50.0 mg/kg/injection, schedule: Q04DX003 (ip), vehicle: saline sonified) was 100 % of control; the T/C (dose: 100.0 mg/kg/injection, schedule: Q04DX003 (ip), vehicle: saline sonified) was 100 % of control; the T/C (dose: 200.0 mg/kg/injection, schedule: Q04DX003 (ip), vehicle: saline sonified) was 95 % of control.
Regarding `COP(=S)(NC(C)C)Oc1ccc(C)cc1[N+](=O)[O-]` (stereo not drawn), the T/C runs as follows: under setting [1], 106 % of control; (dose: 3.13 mg/kg/injection, schedule: Q01DX009 (ip), vehicle: saline with Tween-80) 89 % of control; under setting [2], 97 % of control; (dose: 12.5 mg/kg/injection, schedule: Q01DX009 (ip), vehicle: saline with Tween-80) 100 % of control.
As to `CCC(C)C(O)C(C(=O)O)C1CCCCC1` (stereo not drawn), the T/C (dose: 50.0 mg/kg/injection, schedule: Q01DX005 (ip), vehicle: saline with Tween-80) was 100 % of control; the T/C (dose: 100.0 mg/kg/injection, schedule: Q01DX005 (ip), vehicle: saline with Tween-80) is 95 % of control; the T/C (dose: 200.0 mg/kg/injection, schedule: Q01DX005 (ip), vehicle: saline with Tween-80) was 86 % of control.
Turning to `CC1(C(=O)N2CC2)OC1c1ccccc1` (stereo not drawn), the T/C is, setting by setting: (dose: 25.0 mg/kg/injection, schedule: Q04DX002 (ip), vehicle: saline with Tween-80) 91 % of control; (dose: 50.0 mg/kg/injection, schedule: Q04DX002 (ip), vehicle: saline with Tween-80) 98 % of control; (dose: 100.0 mg/kg/injection, schedule: Q04DX002 (ip), vehicle: saline with Tween-80) 96 % of control and 100 % of control.
With `CC(C)(C)OC(=O)C(CC(=O)O)=C(c1ccccc1)c1ccccc1`, the T/C was 95 % of control under setting [3], 108 % of control under setting [4] and 95 % of control under setting [5].
For the compound `O=C1CCCc2ccccc2N1`, the T/C (dose: 25.0 mg/kg/injection, schedule: Q01DX009 (ip), vehicle: Klucel (hydroxypropylcellulose) (HPC)) is 100 % of control; the T/C (dose: 50.0 mg/kg/injection, schedule: Q01DX009 (ip), vehicle: Klucel (hydroxypropylcellulose) (HPC)) is 95 % of control; the T/C (dose: 100.0 mg/kg/injection, schedule: Q01DX009 (ip), vehicle: Klucel (hydroxypropylcellulose) (HPC)) was 91 % of control; the T/C under setting [3] was 95 % of control; the T/C (dose: 200.0 mg/kg/injection, schedule: Q01DX009 (ip), vehicle: Klucel (hydroxypropylcellulose) (HPC)) is 91 % of control; the T/C under setting [4] was 100 % of control. The T/C is 91 % of control (dose: 400.0 mg/kg/injection, schedule: Q01DX009 (ip), vehicle: Klucel (hydroxypropylcellulose) (HPC)) and 100 % of control under setting [5].
In the case of `COc1ccc(CC2c3ccccc3CC[N+]2(C)C)cc1Oc1ccc(CC2c3ccccc3CC[N+]2(C)C)cc1` (stereo not drawn), the T/C by setting is: (dose: 0.39 mg/kg/injection, schedule: Q04DX003 (ip), vehicle: saline) 98 % of control; (dose: 0.78 mg/kg/injection, schedule: Q04DX003 (ip), vehicle: saline) 105 % of control; (dose: 1.56 mg/kg/injection, schedule: Q04DX003 (ip), vehicle: saline with Tween-80) 104 % of control.
Take `O=C[C@@H](CO)O[C@H](C=O)n1cnc2c(=O)[nH]cnc21`: the T/C is 170 % of control (dose: 108.0 mg/kg/injection, schedule: Q04DX003 (ip), vehicle: water); 179 % of control and 184 % of control (dose: 180.0 mg/kg/injection, schedule: Q04DX003 (ip), vehicle: water); 227 % of control and 247 % of control (dose: 300.0 mg/kg/injection, schedule: Q04DX003 (ip), vehicle: water).
For `Cc1ccc(NC(=O)NCCCOc2ccc(N3C(N)=NC(N)=NC3(C)C)cc2Cl)cc1S(=O)(=O)F`, the T/C is 100 % of control (dose: 45.0 mg/kg/injection, schedule: Q04DX003 (ip), vehicle: saline); 155 % of control under setting [6]; 109 % of control (dose: 65.0 mg/kg/injection, schedule: Q04DX003 (ip), vehicle: saline); 150 % of control and 155 % of control (dose: 75.0 mg/kg/injection, schedule: Q01DX009 (ip), vehicle: saline); 122 % of control (dose: 100.0 mg/kg/injection, schedule: Q04DX003 (ip), vehicle: saline); 160 % of control (dose: 110.0 mg/kg/injection, schedule: Q01DX009 (ip), vehicle: saline). Also, the T/C is, setting by setting: (dose: 150.0 mg/kg/injection, schedule: Q01DX009 (ip), vehicle: saline) 90 % of control; (dose: 200.0 mg/kg/injection, schedule: Q04DX003 (ip), vehicle: saline) 186 % of control.
For the compound `CC(=O)OC1(CSc2ccccc2)CCCCC1`, the T/C (dose: 50.0 mg/kg/injection, schedule: Q01DX009 (ip), vehicle: saline with Tween-80) is 93 % of control.
Turning to `NCCc1c[nH]c2ccc(F)cc12`, the T/C (dose: 12.5 mg/kg/injection, schedule: Q01DX009 (ip), vehicle: saline) was 91 % of control; the T/C (dose: 25.0 mg/kg/injection, schedule: Q01DX009 (ip), vehicle: saline) is 98 % of control; the T/C under setting [6] was 98 % of control; the T/C (dose: 100.0 mg/kg/injection, schedule: Q01DX009 (ip), vehicle: saline) was 91 % of control.
On to `CC[N+](CC)(CC)CC.N#C/C([SH2+])=C(/[SH2+])C#N.N#C/C([SH2+])=C(/[SH2+])C#N.[Fe+2]`, for which the T/C was 105 % of control under setting [1]; 110 % of control (dose: 3.12 mg/kg/injection, schedule: Q01DX009 (ip), vehicle: saline with Tween-80); 100 % of control (dose: 3.5 mg/kg/injection, schedule: Q01DX001 (ip), vehicle: saline with Tween-80); 110 % of control under setting [2]; 95 % of control (dose: 7.0 mg/kg/injection, schedule: Q01DX001 (ip), vehicle: saline with Tween-80); 100 % of control (dose: 9.2 mg/kg/injection, schedule: Q04DX003 (ip), vehicle: saline with Tween-80). Besides, the T/C (dose: 14.0 mg/kg/injection, schedule: Q04DX003 (ip), vehicle: saline with Tween-80) was 95 % of control.
For the compound `O=C(NC(=O)c1c(F)cccc1F)Nc1nc2ccccc2s1`, the T/C is 93 % of control (dose: 25.0 mg/kg/injection, schedule: Q01DX009 (ip), vehicle: saline with Tween-80) and 93 % of control (dose: 100.0 mg/kg/injection, schedule: Q01DX009 (ip), vehicle: saline with Tween-80).
Regarding `Cc1c(C)c(N)c(C)c(C)c1N`, the T/C by setting is: (dose: 3.0 mg/kg/injection, schedule: Q01DX009 (ip), vehicle: Klucel (hydroxypropylcellulose) (HPC)) 91 % of control; (dose: 3.0 mg/kg/injection, schedule: Q04DX003 (ip), vehicle: Klucel (hydroxypropylcellulose) (HPC)) 108 % of control; (dose: 6.0 mg/kg/injection, schedule: Q01DX009 (ip), vehicle: Klucel (hydroxypropylcellulose) (HPC)) 87 % of control; (dose: 6.0 mg/kg/injection, schedule: Q04DX003 (ip), vehicle: Klucel (hydroxypropylcellulose) (HPC)) 100 % of control; (dose: 12.0 mg/kg/injection, schedule: Q01DX009 (ip), vehicle: Klucel (hydroxypropylcellulose) (HPC)) 95 % of control; (dose: 12.0 mg/kg/injection, schedule: Q04DX003 (ip), vehicle: Klucel (hydroxypropylcellulose) (HPC)) 91 % of control.
